Test results reported in ChEMBL document CHEMBL1201862, “PubChem BioAssay data set” (2004).
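Following 48 hours of exposure in 96-well plates, responses at five concentrations were used to interpolate endpoints linearly. Here, GI50 denotes the concentration required for 50% inhibition of growth.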 Calls of active or inactive are those of the source. Cut-off read from the data, not from the text of the source: active = GI50 up to about 1.1 µM and inactive = higher.

What was measured:
Assay in all cases: growth of human tumour cells (NCI), 48 h
[1] = system: 786-0
[2] = system: A498
[3] = system: A549
[4] = system: ACHN
[5] = system: BT-549
[6] = system: CAKI-1
[7] = system: CCRF-CEM
[8] = system: COLO 205
[9] = system: DU-145
[10] = system: HCT-116
[11] = system: HCT-15
[12] = system: HL-60
[13] = system: HOP-62
[14] = system: HT-29
[15] = system: Hs-578T
[16] = system: IGROV-1
[17] = system: K562
[18] = system: KM12
[19] = system: LOX IMVI
[20] = system: M14
[21] = system: MCF7
[22] = system: MDA-MB-231
[23] = system: MDA-MB-435
[24] = system: MDA-N
[25] = system: MOLT-4
[26] = system: Malme-3M
[27] = system: NCI-H226
[28] = system: NCI-H23
[29] = system: NCI-H460
[30] = system: NCI-H522
[31] = system: NCI/ADR-RES
[32] = system: OVCAR-3
[33] = system: OVCAR-5
[34] = system: OVCAR-8
[35] = system: PC-3
[36] = system: RPMI-8226
[37] = system: RXF 393
[38] = system: SF-268
[39] = system: SF-295
[40] = system: SF-539
[41] = system: SK-MEL-28
[42] = system: SK-MEL-2
[43] = system: SK-MEL-5
[44] = system: SK-OV-3
[45] = system: SN12C
[46] = system: SNB-19
[47] = system: SNB-75
[48] = system: SW-620
[49] = system: T47D
[50] = system: TK-10
[51] = system: U-251
[52] = system: UACC-257
[53] = system: UACC-62
[54] = system: UO-31
[55] = system: EKVX
[56] = system: HCC 2998
[57] = system: HOP-92
[58] = system: OVCAR-4

Compound: CN1CN(c2ccccc2)C2(CCN(CCCN(C)c3ccc(F)cc3)CC2)C1=O
- GI50 [1]: 18.6 µM (inactive)
- GI50 [2]: 29.4 µM (inactive)
- GI50 [3]: 23.2 µM (inactive)
- GI50 [4]: 22.2 µM (inactive)
- GI50 [5]: 15.2 µM (inactive)
- GI50 [6]: 30.1 µM (inactive)
- GI50 [7]: 11.2 µM (inactive)
- GI50 [8]: 11.6 µM (inactive)
- GI50 [9]: 23.9 µM (inactive)
- GI50 [10]: 12.8 µM (inactive)
- GI50 [11]: 22.3 µM
- GI50 [12]: 3.21 µM (inactive)
- GI50 [13]: 17.7 µM (inactive)
- GI50 [14]: 10.1 µM (inactive)
- GI50 [15]: 18.7 µM (inactive)
- GI50 [16]: 16.5 µM (inactive)
- GI50 [17]: 1.58 µM (inactive)
- GI50 [18]: 16 µM (inactive)
- GI50 [19]: 15.8 µM (inactive)
- GI50 [20]: 16.2 µM (inactive)
- GI50 [21]: 15.2 µM (inactive)
- GI50 [22]: 14.3 µM (inactive)
- GI50 [23]: 18.2 µM (inactive)
- GI50 [24]: 16.3 µM (inactive)
- GI50 [25]: 5.02 µM (inactive)
- GI50 [26]: 19.5 µM (inactive)
- GI50 [27]: 19.1 µM (inactive)
- GI50 [28]: 19.1 µM (inactive)
- GI50 [29]: 16.4 µM (inactive)
- GI50 [30]: 13.9 µM (inactive)
- GI50 [31]: 20.6 µM (inactive)
- GI50 [32]: 16 µM (inactive)
- GI50 [33]: 17.3 µM (inactive)
- GI50 [34]: 18.9 µM (inactive)
- GI50 [35]: 23.4 µM (inactive)
- GI50 [36]: 10.7 µM (inactive)
- GI50 [37]: 16.3 µM (inactive)
- GI50 [38]: 20.3 µM (inactive)
- GI50 [39]: 14.9 µM (inactive)
- GI50 [40]: 22.5 µM (inactive)
- GI50 [41]: 20.9 µM (inactive)
- GI50 [42]: 17.5 µM (inactive)
- GI50 [43]: 16.2 µM (inactive)
- GI50 [44]: 17.1 µM (inactive)
- GI50 [45]: 34.5 µM (inactive)
- GI50 [46]: 20 µM (inactive)
- GI50 [47]: 16.9 µM (inactive)
- GI50 [48]: 17.8 µM (inactive)
- GI50 [49]: 16.7 µM (inactive)
- GI50 [50]: 18.9 µM (inactive)
- GI50 [51]: 18.6 µM (inactive)
- GI50 [52]: 17.8 µM (inactive)
- GI50 [53]: 18.7 µM (inactive)
- GI50 [54]: 16.2 µM (inactive)

Compound: CC1C2(C)OC(=N)C(C#N)(C(c3ccco3)O2)C1(C#N)C#N (centres undefined)
- GI50 [1]: 20.8 µM (inactive)
- GI50 [2]: > 100 µM (inactive)
- GI50 [3]: > 100 µM (inactive)
- GI50 [4]: 36.6 µM (inactive)
- GI50 [5]: 35.2 µM (inactive)
- GI50 [6]: 14.4 µM (inactive)
- GI50 [7]: 23.6 µM (inactive)
- GI50 [8]: 13.6 µM (inactive)
- GI50 [9]: 31 µM (inactive)
- GI50 [55]: 34 µM (inactive)
- GI50 [56]: 26.9 µM (inactive)
- GI50 [10]: 26.7 µM (inactive)
- GI50 [11]: 12.5 µM
- GI50 [12]: 18.8 µM (inactive)
- GI50 [57]: 22.3 µM (inactive)
- GI50 [14]: 32.8 µM (inactive)
- GI50 [15]: 24.9 µM (inactive)
- GI50 [16]: 58.9 µM (inactive)
- GI50 [17]: 34.9 µM (inactive)
- GI50 [18]: 59.8 µM (inactive)
- GI50 [19]: 19.2 µM (inactive)
- GI50 [20]: 19.1 µM (inactive)
- GI50 [21]: 22.4 µM (inactive)
- GI50 [22]: 19.1 µM (inactive)
- GI50 [24]: 19.8 µM (inactive)
- GI50 [25]: 32.2 µM (inactive)
- GI50 [26]: 31.2 µM (inactive)
- GI50 [27]: > 100 µM (inactive)
- GI50 [28]: 29.9 µM (inactive)
- GI50 [29]: 19.3 µM (inactive)
- GI50 [31]: > 100 µM (inactive)
- GI50 [32]: 21.3 µM (inactive)
- GI50 [33]: 29.7 µM (inactive)
- GI50 [34]: 39.9 µM (inactive)
- GI50 [35]: 36.6 µM (inactive)
- GI50 [37]: 22.6 µM (inactive)
- GI50 [38]: 29 µM (inactive)
- GI50 [39]: > 100 µM (inactive)
- GI50 [40]: 19.5 µM (inactive)
- GI50 [41]: 18.4 µM (inactive)
- GI50 [42]: 29.4 µM (inactive)
- GI50 [43]: 14.9 µM (inactive)
- GI50 [44]: > 100 µM (inactive)
- GI50 [45]: 16.7 µM (inactive)
- GI50 [46]: 42.5 µM (inactive)
- GI50 [47]: 97.3 µM (inactive)
- GI50 [48]: 16.4 µM (inactive)
- GI50 [49]: 17.8 µM (inactive)
- GI50 [50]: 37.9 µM (inactive)
- GI50 [51]: 24.4 µM (inactive)
- GI50 [52]: 20.5 µM (inactive)
- GI50 [53]: 17.7 µM (inactive)
- GI50 [54]: 38.5 µM (inactive)

Compound: O=[N+]([O-])c1ccc2c(c1)Cc1cc(/N=C/c3ccc4c(c3)OCO4)ccc1-2
- GI50 [1]: > 100 µM (inactive)
- GI50 [2]: > 100 µM (inactive)
- GI50 [3]: > 100 µM (inactive)
- GI50 [4]: > 100 µM (inactive)
- GI50 [5]: > 100 µM (inactive)
- GI50 [6]: > 100 µM (inactive)
- GI50 [7]: 61.9 µM (inactive)
- GI50 [8]: > 100 µM (inactive)
- GI50 [9]: > 100 µM (inactive)
- GI50 [55]: 57.1 µM (inactive)
- GI50 [10]: > 100 µM (inactive)
- GI50 [11]: > 100 µM
- GI50 [12]: > 100 µM (inactive)
- GI50 [13]: > 100 µM (inactive)
- GI50 [57]: > 100 µM (inactive)
- GI50 [14]: > 100 µM (inactive)
- GI50 [15]: 80 µM (inactive)
- GI50 [16]: > 100 µM (inactive)
- GI50 [17]: > 100 µM (inactive)
- GI50 [18]: > 100 µM (inactive)
- GI50 [19]: > 100 µM (inactive)
- GI50 [20]: > 100 µM (inactive)
- GI50 [21]: > 100 µM (inactive)
- GI50 [22]: > 100 µM (inactive)
- GI50 [23]: > 100 µM (inactive)
- GI50 [24]: > 100 µM (inactive)
- GI50 [25]: > 100 µM (inactive)
- GI50 [26]: > 100 µM (inactive)
- GI50 [27]: > 100 µM (inactive)
- GI50 [28]: > 100 µM (inactive)
- GI50 [29]: > 100 µM (inactive)
- GI50 [30]: > 100 µM (inactive)
- GI50 [31]: > 100 µM (inactive)
- GI50 [32]: > 100 µM (inactive)
- GI50 [58]: > 100 µM (inactive)
- GI50 [33]: > 100 µM (inactive)
- GI50 [34]: > 100 µM (inactive)
- GI50 [35]: > 100 µM (inactive)
- GI50 [36]: > 100 µM (inactive)
- GI50 [37]: > 100 µM (inactive)
- GI50 [38]: > 100 µM (inactive)
- GI50 [39]: > 100 µM (inactive)
- GI50 [40]: > 100 µM (inactive)
- GI50 [41]: > 100 µM (inactive)
- GI50 [42]: > 100 µM (inactive)
- GI50 [43]: > 100 µM (inactive)
- GI50 [44]: > 100 µM (inactive)
- GI50 [45]: > 100 µM (inactive)
- GI50 [46]: > 100 µM (inactive)
- GI50 [47]: 89.7 µM (inactive)
- GI50 [48]: > 100 µM (inactive)
- GI50 [49]: > 100 µM (inactive)
- GI50 [50]: > 100 µM (inactive)
- GI50 [51]: > 100 µM (inactive)
- GI50 [52]: > 100 µM (inactive)
- GI50 [53]: > 100 µM (inactive)
- GI50 [54]: > 100 µM (inactive)
